Source: patent US20180289666A1, “FLAVONOLIGNANS FOR TREATMENT OF AUTOIMMUNE INFLAMMATORY DISEASES” (Macau University of Science and Technology, priority 2017, published 2018)

What was measured:
AIA rats [1] = assay: Plasma metabolomics by LC-MS/MS in AIA rats; format: in vivo, Sprague-Dawley (SD) rats
Experimental: The plasma sample (200 μL) was thawed on ice for 5 min prior to sample preparation and was mixed with 200 μL of 10 mM N-ethylmaleimide (NEM) in PBS buffer solution and 1000 μL of methanol containing internal standard (I.S.) Phe-d5 in 10 ng/ml. This mixture was incubated at −20° C. for 20 min, and then centrifuged at 12000 rpm for 10 min at 4° C. The supernatant was completely dried under nitrogen flow (Pressure Blowing Concentrator, Tokyo Rikakika, Tokyo, Japan) and reconstituted with distilled water.
LC-MS/MS analysis was performed on A Waters ACQUITY UPLC coupled with a 4000 Q-TRAP mass spectrometer. Chromatographic separation was carried on a Waters X Bridge™ BEH C18 analytical column (2.5 μm, 3.0×100 mm; Waters, Torrance, Calif.) with a mobile phase composed of 0.1% formic acid water (solvent A) and methanol (solvent B) which was running in a gradient program: 0-3.0 min (0%-1% B); 3.0-10.0 min (1-3% B); 10.0-14.0 min (3-50% B); 14.0-18.0 min (50-95% B); 18.0-22.0 min (95-0% B); followed by a 3-min re-equilibration step. The injection volume was 10 μl at 4° C. and flow rate was 0.6 ml/min. Electrospray (ESI) source were used in both positive and negative ion mode. […]
The normalized data were exported and further processed by PCA and PLS-DA using a multivariate analysis package SIMCA-P software (Umea, Sweden). Model quality was evaluated based on the relevant values of R^2 and Q^2. […]

AIA rats [2] = conditions: AIA rats; MTX alone; versus vehicle-treated AIA rats
AIA rats [3] = assay: Radiological and histopathological examination of hind paws / ankle joints of AIA rats; format: in vivo, Sprague-Dawley (SD) rats
Experimental: Disease severity and progression were evaluated by measurements of both hind paw volumes with a plethysmometer chamber (Yiyan technology, Jinan, China) and body weight with a 0.1 g precision balance (Sartorius AG, Göttingen, Germany) every two or three days after arthritis induction. For evaluation the arthritic scoring, the lesions of four paws of each rat (i.e., the arthritic signs) were graded by two separate investigators with a semi-quantitative scale: 0 (normal), 4-8 (mild changes), 8-12 (moderate changes), and 12-16 (severe changes) (van Eden W., et. al., J. E. Coligan, Editor. 2001, John Wiley: New York. p. 1-11). Erythrocyte sedimentation rate (ESR) was determined with ICSH (International Council for Standardization in Hematology) selected method with little modifications at day 42. Briefly, 120 μl of blood sample was taken directly and put into 30 μl of 0.109 mol/L sodium citrate, mixed well, and then transferred into a 1.0 mm×100 mm capillary tube (West China Medical University, ChengDu, China). The tubes were held obliquely at an angle of […] and the erythrocyte sedimentation rate was recorded at 15 min. The cytokines levels including IL-1β, TNF-α, IL-17, IL-33, MMP-9, TIMP-1 and PGE2 in serum were measured using commercially available ELISA kits according to the manufacturers instructions. At the end of the experiments, rat knee images were measured (mean of three readings per knee, Meinaite digital calliper, ShangHai, China) using a IVIS Lumina XRMS Series (PerkinElmer, America) (Esser, R. E., et al., Arthritis Rheum, 1995, 38(1): p. 129-38).
For histopathological assessment, arthritic paws were collected on day 42 after X-ray check, fixed with 10% phosphate buffered saline (PBS) buffered formalin, and decalcified for 3 days in formic acid. Sections from paraffin-embedded tissue were stained with hematoxylin and eosin (H&E). The obtained plasma was stored in −70° C. for metabolomic studies. The relative organ weight ratios (such as liver index, spleen index, kidney index, lung index) were calculated by dividing the weight of each organ with the body weight.

AIA rats [4] = assay: Assessment of liver abnormality and lipid profile in AIA model; format: in vivo, Sprague-Dawley (SD) rats
Experimental: Serum ALT, AST, ALP, GGT and total bilirubin were measured by automatic biochemical analyzer (Toshiba Corporation, Tokyo, Japan). Lipids profile including TG, TC, HDL-C, LDL-C/vLDL-C and free fatty acids were measured in the serum. After animals were sacrificed, tissues of liver were fixed in 10% formalin solution, cleared in xylene, embedded in paraffin blocks from which 5 micron-thick sections were obtained. Sections were stained with H&E dye and examined for pathological changes under light microscope by a pathologist blind to the specimens.

[5] = tested on: key enzymes involved in lipid metabolism in liver; assay: Real-time PCR and Western blot of lipid metabolism enzymes in liver of AIA rats; format: in vivo, Sprague-Dawley (SD) rats; conditions: AIA rats liver
Experimental: Total RNA was isolated from the frozen liver of the AIA model using TRIzol® Reagent (Life technology, USA). mRNA was purified by binding to poly(dT) magnetic beads using Dynabeads® mRNA DIRECT™ Kit (Life technology, Norway) and reverse transcribed using SuperScript® III reverse transcriptase (Invitrogen, California, USA) as described by the manufacturer. Quantitative real-time PCR was performed using SYBR Green (Sigma-Aldrich, Louis, USA) on the ViiA™ 7 Real-Time PCR System (Applied Biosystems, FosterCity, USA). Quantitative RT-PCR analysis was performed using SYBR Green reagents and ViiA™ 7 Real-Time PCR System. Gene expression levels were calculated from cycle threshold (Ct) values and normalized with control gene GAPDH.
Liver tissue homogenates of AIA and MCD animal models were lysed in RIPA buffer (50 mM pH 7.4 Tris, 150 mM NaCl, 1% Triton X-100, 1% sodium deoxycholate, 0.1% SDS, sodium orthovanadate, sodium fluoride and EDTA) containing protease inhibitor cocktails (Roche Life Science, USA). Protein concentration was determined using the BCA protein assay kit (BIO-RAD, USA). Equal amounts of total protein were resolved using SDS-PAGE and transferred onto PVDF membranes (Millipore, Darmstadt, Germany). After incubation in a blocking solution containing with 5% (w/v) skim milk (Nestle Carnation, New Zealand) in TBST buffer (10 mM tris-buffered saline and 0.1% Tween20) for 1 h at room temperature and incubated with primary antibodies overnight at 4° C. The membranes were washed three times with 1×TBST solutions and incubated with the appropriate secondary antibodies at room temperature for 45 min, and subsequently visualized with an enhanced chemiluminescence detection kit (SuperSignal™ West Pico Chemiluminescent Substrate, Thermo Scientific, USA). β-actin was used as the loading control for the experimental data analysis.

CN(Cc1cnc2nc(N)nc(N)c2n1)c1ccc(C(=O)N[C@@H](CCC(=O)O)C(=O)O)cc1 [MTX, methotrexate, reference compound]
metabolic network (plasma metabolites) (AIA rats [1]): effectively repair the metabolic network | changes in arthritis score (AIA rats [2]): significantly (p<0.001) ameliorated | changes in paw volume (AIA rats [2]): significantly (p<0.001) ameliorated | cartilage and joint destruction of the arthritic joints (radiographs) (AIA rats [3]; MTX, day 42): ameliorated | infiltration of inflammatory cells, synovial hyperplasia (AIA rats [3]; ankle joint sections, H&E): diminished | histological grade of representative ankle joint sections (AIA rats [3]; day 42, H&E, FIG. 2C (MTX; Silybin 200 mg/kg), vehicle-treated AIA grade 2/3): 0 | histopathological assessment of liver tissue (AIA rats [4]; H&E liver sections): congested portal tract and mild fatty changes with lipid drop lets | dyslipidemia (serum lipid profile) (AIA rats [4]; MTX): successfully improved | ALT serum level (AIA rats [4]; methotrexate alone, 42 days): significant increase | GGT serum level (AIA rats [4]; methotrexate alone, 42 days): significant increase | expression of aP2 in the liver [5]: reduced | mRNA and/or protein expression of LPL, CYP7A1, and SREBP1 in liver [5]: greatly repressed | overexpression of SREBP1 [5]: not modulated | increased mRNA levels of hepatic lipogenesis genes (SREBP1, LXR, FXR) ([5]; real-time PCR): attenuated | changes of key lipogenic enzyme in both gene and protein levels ([5]; real-time PCR and Western blot): ameliorated changes
